Test results as given in patent publication US8324247B2, “Method for treating pulmonary arterial hypertension” (Ventrus Biosciences, Inc., priority 2009, dated 2012).

Tested on: acute hypoxia-induced pulmonary hypertension
Assay: Acute hypoxia-induced pulmonary hypertension in rats (mean pulmonary arterial pressure)
Type: in vivo, rat
Description: Measurement of Pulmonary and Systemic Arterial Pressure
Male Sprague-Dawley rats were obtained from Charles River Breeding Laboratories (Wilmington, Mass.) at 9-10 wk of age. For pulmonary arterial pressure measurement, a closed-chest technique (1-4). Under ketamine (80 mg/kg) and xylazine (5 mg/kg) anesthesia, a small transverse cut was made in the proximal right external jugular vein through passed. The introducer was a blunted 7.5 cm, 19-gauge needle with the tip turned up 30 degrees. The Silastic catheter filled with heparinsaline solution was passed through the introducer and attached by a 25 gauge blunted needle to a pressure transducer (model CP-01, Century Technology, Inglewood, Calif.) coupled to a polygraph (model 7, Grass Instruments, Quincy, Mass.). After the introducer was placed in the right ventricular cavity, the tip was directed anteriorly. The catheter was then advanced into the pulmonary artery. Catheter position was identified by the pressure tracing. The introducer was slipped out over the catheter and removed after a typical pulmonary arterial pressure tracing was recorded. […] One day after catheterization, mean pulmonary arterial pressure (MPAP), mean systemic arterial pressure (MSAP) were recorded through the pulmonary and femora arterial catheters via transducers coupled to the polygraph. […]

CN1CCCC[C@H]1CCc1ccccc1NC(=O)/C=C/c1ccccc1 [Iferanserin, S-2′-[2-(1-methyl-2-piperidyl)ethyl] cinnamanilide]
effect on acute hypoxia-induced pulmonary hypertension (adult male Sprague-Dawley rats, 3 and 10 mg/kg p.o., given 45 min before normobaric hypoxia (10% O2) for 90 min): partially inhibited | dose dependence of the effect on acute hypoxia-induced pulmonary hypertension (adult rats, within the range of 3-10 mg/kg, p.o.): no dose-dependent response
